Test results from US11612604B2, “Methods of treating cancer with PLK4 inhibitors” (LUDWIG INSTITUTE FOR CANCER RESEARCH LTD, priority 2017, dated 2023).

target: T1, PLK4 (Homo sapiens, UniProt O00444); test: Activity (IC50) of the Table 1 compounds as PLK4 inhibitors; type: biochemical; conditions: Table 1, IC50 class
T1 sequence (O00444 1-970): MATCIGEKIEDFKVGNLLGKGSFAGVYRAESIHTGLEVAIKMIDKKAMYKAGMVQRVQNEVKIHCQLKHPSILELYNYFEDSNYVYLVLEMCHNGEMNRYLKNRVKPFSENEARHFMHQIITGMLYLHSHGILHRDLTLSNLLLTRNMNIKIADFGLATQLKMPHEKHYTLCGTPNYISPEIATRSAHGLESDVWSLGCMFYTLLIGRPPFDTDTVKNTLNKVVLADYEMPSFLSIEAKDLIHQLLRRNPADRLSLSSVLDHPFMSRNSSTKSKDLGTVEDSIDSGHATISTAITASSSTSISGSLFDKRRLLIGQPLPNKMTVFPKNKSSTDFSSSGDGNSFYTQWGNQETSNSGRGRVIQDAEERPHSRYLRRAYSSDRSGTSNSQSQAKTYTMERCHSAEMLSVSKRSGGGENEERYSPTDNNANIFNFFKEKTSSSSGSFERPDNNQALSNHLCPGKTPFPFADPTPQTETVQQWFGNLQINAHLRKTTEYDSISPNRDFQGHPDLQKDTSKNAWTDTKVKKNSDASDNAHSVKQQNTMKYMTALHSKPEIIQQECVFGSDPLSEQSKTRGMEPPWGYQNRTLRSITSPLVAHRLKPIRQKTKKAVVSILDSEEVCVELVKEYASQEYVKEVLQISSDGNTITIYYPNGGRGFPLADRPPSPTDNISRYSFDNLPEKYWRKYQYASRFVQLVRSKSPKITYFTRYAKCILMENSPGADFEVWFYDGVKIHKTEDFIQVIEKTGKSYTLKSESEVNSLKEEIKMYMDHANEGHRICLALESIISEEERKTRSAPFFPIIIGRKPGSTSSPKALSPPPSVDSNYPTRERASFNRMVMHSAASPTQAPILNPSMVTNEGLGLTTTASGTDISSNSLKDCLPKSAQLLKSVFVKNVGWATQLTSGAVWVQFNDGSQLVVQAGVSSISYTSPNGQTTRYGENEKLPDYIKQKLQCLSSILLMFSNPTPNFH

IC50 [nM]	Compound
< 100	COc1c(Nc2cc(C)[nH]n2)nc(Sc2ccc(NC(=O)C3CC3)cc2)nc1N1CCCCC1
< 100	COc1c(Nc2cc(C)[nH]n2)nc(Sc2ccc(NC(=O)C3CC3)cc2)nc1NC(C)C
< 100	CNc1nc(Sc2ccc(NC(=O)C3CC3)cc2)nc(Nc2cc(C)[nH]n2)c1OC
< 100	CCNc1nc(Sc2ccc(NC(=O)C3CC3)cc2)nc(Nc2cc(C)[nH]n2)c1OC
< 100	CC(=O)Nc1ccc(Sc2nc3c(c(Nc4cc(C)[nH]n4)n2)C(C)CC3)cc1 (stereo not shown)
< 100	COc1c(Nc2cc(C)[nH]n2)nc(Sc2ccc(/C=C/c3cccc([N+](=O)[O-])c3F)cc2F)nc1N1CCOCC1
< 100	COc1c(Nc2cc(C)[nH]n2)nc(Sc2ccc(CCc3cccc([N+](=O)[O-])c3F)cc2F)nc1N1CCOCC1
100 to 1000	COc1c(Nc2cc(C)[nH]n2)nc(Sc2ccc(-c3cc4cccc([N+](=O)[O-])c4o3)cc2F)nc1N1CCOCC1
< 100	COc1c(Nc2cc(C)[nH]n2)nc(Sc2ccc(C(=O)Cc3cccc([N+](=O)[O-])c3F)cc2F)nc1N1CCOCC1
< 100	COc1c(Nc2cc(C)[nH]n2)nc(Sc2ccc(C(=O)Oc3cccc([N+](=O)[O-])c3F)cc2F)nc1N1CCOCC1
100 to 1000	COc1c(Nc2cc(C)[nH]n2)nc(Sc2ccc(NC(=O)c3cccc([N+](=O)[O-])c3)cc2F)nc1N1CCOCC1
< 100	COc1c(Nc2cc(C)[nH]n2)nc(Sc2ccc(S(=O)(=O)Nc3cccc([N+](=O)[O-])c3)cc2F)nc1N1CCOCC1
< 100	COc1c(Nc2cc(C)[nH]n2)nc(Sc2ccc(S(=O)(=O)Cc3cccc([N+](=O)[O-])c3F)cc2F)nc1N1CCCC[C@@H]1CO
< 100	COc1c(Nc2cc(C)[nH]n2)nc(Sc2ccc(NC(=O)Cc3cccc([N+](=O)[O-])c3F)cc2F)nc1N1CCOCC1
< 100	COc1c(Nc2cc(C)[nH]n2)nc(Sc2ccc(S(=O)(=O)C(C)(C)c3cccc([N+](=O)[O-])c3F)cc2F)nc1N1CCCCC1
< 100	COc1c(Nc2cc(C)[nH]n2)nc(Sc2ccc(S(=O)(=O)C(C)(C)c3cccc(Cl)c3F)cc2F)nc1N1CCOCC1
< 100	COc1c(Nc2cc(C)[nH]n2)nc(Sc2ccc(S(=O)(=O)C(C)(C)c3cccc([N+](=O)[O-])c3F)cc2F)nc1N1CCC(N(C)C)CC1
< 100	COc1c(Nc2cc(C)[nH]n2)nc(Sc2ccc(S(=O)(=O)C(C)(C)c3cccc(Cl)c3F)cc2F)nc1N1CCC(CCN(C)C)CC1
< 100	COc1c(Nc2cc(C)[nH]n2)nc(Sc2ccc(S(=O)(=O)C(C)(C)c3cccc([N+](=O)[O-])c3F)cc2F)nc1N(C)C
< 100	COC(=O)CC1CCN(c2nc(Sc3ccc(S(=O)(=O)C(C)(C)c4cccc([N+](=O)[O-])c4F)cc3F)nc(Nc3cc(C)[nH]n3)c2OC)CC1
< 100	COc1c(Nc2cc(C)[nH]n2)nc(Sc2ccc(S(=O)(=O)C(C)(C)c3cccc([N+](=O)[O-])c3F)cc2F)nc1N1CCC(CC(=O)O)CC1
< 100	COc1c(Nc2cc(C)[nH]n2)nc(Sc2ccc(S(=O)(=O)C(C)(C)c3cccc([N+](=O)[O-])c3F)cc2F)nc1N1CCC(N(C)C)C1 (stereo not shown)
< 100	COc1c(Nc2cc(C)[nH]n2)nc(Sc2ccc(S(=O)(=O)C(C)(C)c3cccc([N+](=O)[O-])c3F)cc2F)nc1N1CCC(OC)C1 (stereo not shown)

The remaining lines, values behind:

Compound	IC50 [nM]
COc1c(Nc2cc(C)[nH]n2)nc(Sc2ccc(S(=O)(=O)C(C)(C)c3cccc([N+](=O)[O-])c3F)cc2F)nc1N1CCOCC1	< 100
COc1c(Nc2cc(C)[nH]n2)nc(Sc2ccc(S(=O)(=O)Cc3cccc(C#N)c3F)cc2F)nc1N1CCN(CCN(C)C)CC1	< 100
COc1c(Nc2cc(C)[nH]n2)nc(Sc2ccc(S(=O)(=O)C(F)c3cccc(C#N)c3F)cc2F)nc1N1CCOCC1 (stereo not shown)	< 100
COc1c(Nc2cc(C)[nH]n2)nc(Sc2ccc(S(=O)(=O)Cc3cccc([N+](=O)[O-])c3F)cc2F)nc1N1CCC(CCN(C)C)CC1	< 100
COc1c(Nc2cc(C)[nH]n2)nc(Sc2ccc(S(=O)(=O)C(F)c3cccc([N+](=O)[O-])c3F)cc2F)nc1N1CCC(CCN(C)C)CC1 (stereo not shown)	< 100
COc1c(Nc2cc(C)[nH]n2)nc(Sc2ccc(S(=O)(=O)C(C)(C)c3cccc([N+](=O)[O-])c3F)cc2F)nc1N1CCN(CCN(C)C)CC1	< 100
COc1c(Nc2cc(C)[nH]n2)nc(Sc2ccc(S(=O)(=O)C(F)c3cccc([N+](=O)[O-])c3F)cc2F)nc1N1CCOC[C@@H]1CO (stereo partly shown)	< 100
COc1c(Nc2cc(C)[nH]n2)nc(Sc2ccc(S(=O)(=O)C(F)(F)c3c(F)c(F)cc(F)c3F)cc2F)nc1N1CCOCC1	< 100
COc1c(Nc2cc(C)[nH]n2)nc(Sc2ccc(S(=O)(=O)C(C)(C)c3c(F)c(F)c(C)c(F)c3F)cc2F)nc1N1CCOCC1	< 100
COc1c(Nc2cc(C)[nH]n2)nc(Sc2ccc(S(=O)(=O)C(C)(C)c3c(F)c(F)c(C)c(F)c3F)cc2F)nc1N1CCN(CCN(C)C)CC1	< 100
COc1c(Nc2cc(C)[nH]n2)nc(Sc2ccc(S(=O)(=O)CCc3cccc([N+](=O)[O-])c3F)cc2F)nc1N1CCOCC1	< 100
COc1c(Nc2cc(C)[nH]n2)nc(Sc2ccc(S(=O)(=O)C(C)(C)c3cccc([N+](=O)[O-])c3F)cc2F)nc1N1CCC(CCN(C)C)CC1	< 100
COc1c(Nc2cc(C)[nH]n2)nc(Sc2ccc(S(=O)(=O)C(C)(C)c3cccc([N+](=O)[O-])c3F)cc2F)nc1N1CCOC[C@@H]1CO	< 100
COc1c(Nc2cc(C)[nH]n2)nc(Sc2ccc(S(=O)(=O)C(C)(C)c3cccc(Br)c3F)cc2F)nc1N1CCN(CCN(C)C)CC1	< 100
COc1c(Nc2cc(C)[nH]n2)nc(Sc2ccc(S(=O)(=O)C(C)(C)c3cccc(Cl)c3F)cc2F)nc1N1CCN(CCN(C)C)CC1	< 100
COc1c(Nc2cc(C)[nH]n2)nc(Sc2ccc(S(=O)(=O)C(C)(C)c3cc(F)cc(Cl)c3F)cc2F)nc1N1CCOCC1	< 100
COc1c(Nc2cc(C)[nH]n2)nc(Sc2ccc(S(=O)(=O)C(F)c3cc(F)cc([N+](=O)[O-])c3F)cc2F)nc1N1CCOCC1 (stereo not shown)	< 100
COc1c(Nc2cc(C)[nH]n2)nc(Sc2ccc(S(=O)(=O)C(C)(C)c3cccc([N+](=O)[O-])c3F)cc2F)nc1N1CCN(C)CC1	< 100

Compound	IC50 [nM]
COc1c(Nc2cc(C)[nH]n2)nc(Sc2ccc(S(=O)(=O)C(C)(C)c3cccc([N+](=O)[O-])c3F)cc2F)nc1N1CCNCC1	< 100
COc1c(Nc2cc(C)[nH]n2)nc(Sc2ccc(S(=O)(=O)C(C)(C)c3cccc([N+](=O)[O-])c3F)cc2F)nc1N1CCCC(N(C)C)C1 (stereo not shown)	< 100
COc1c(Nc2cc(C)[nH]n2)nc(Sc2ccc(S(=O)(=O)C(C)(C)c3cc(F)cc([N+](=O)[O-])c3F)cc2F)nc1N1CCC(CCN(C)C)CC1	< 100
COc1c(Nc2cc(C)[nH]n2)nc(Sc2ccc(S(=O)(=O)C(C)(C)c3cccc([N+](=O)[O-])c3F)cc2F)nc1N1CCC(CCCN(C)C)CC1	< 100
COc1c(Nc2cc(C)[nH]n2)nc(Sc2ccc(S(=O)(=O)C(C)(C)c3cc(F)cc(Cl)c3F)cc2F)nc1N1CCC(CCN(C)C)CC1	< 100
COc1c(Nc2cc(C)[nH]n2)nc(Sc2ccc(S(=O)(=O)C(C)(C)c3cccc([N+](=O)[O-])c3F)cc2F)nc1N1CCC(CN(C)C)CC1	< 100
COc1c(Nc2cc(C)[nH]n2)nc(Sc2ccc(S(=O)(=O)C(C)(C)c3cccc([N+](=O)[O-])c3F)cc2F)nc1N1CCC(CC(=O)N(C)C)CC1	< 100
COc1c(Nc2cc(C)[nH]n2)nc(Sc2ccc(S(=O)(=O)C(C)(C)c3cccc([N+](=O)[O-])c3F)cc2F)nc1N1CCC(CCNC(C)=O)CC1	< 100
COc1ccc(CN(C)CCC2CCN(c3nc(Sc4ccc(S(=O)(=O)C(C)(C)c5cc(Cl)cc([N+](=O)[O-])c5F)cc4F)nc(Nc4cc(C)[nH]n4)c3OC)CC2)cc1	< 100
COc1c(Nc2cc(C)[nH]n2)nc(Sc2ccc(S(=O)(=O)C(C)(C)c3c(F)c(F)cc(F)c3F)cc2F)nc1N1CCC(N(C)C)CC1	< 100
COc1c(Nc2cc(C)[nH]n2)nc(Sc2ccc(S(=O)(=O)Cc3c(F)c(F)cc(Cl)c3F)cc2F)nc1N1CCOCC1	< 100
COc1c(Nc2cc(C)[nH]n2)nc(Sc2ccc(S(=O)(=O)Cc3c(F)c(F)cc(Cl)c3F)cc2F)nc1N1CCN(CCN(C)C)CC1	< 100
COc1c(Nc2cc(C)[nH]n2)nc(Sc2ccc(S(=O)(=O)Cc3c(F)c(F)cc(Cl)c3F)cc2F)nc1N1CCC(CCN(C)C)CC1	< 100
COc1c(Nc2cc(C)[nH]n2)nc(Sc2ccc(S(=O)(=O)C(C)(C)c3cccc([N+](=O)[O-])c3F)cc2F)nc1N1CCC(CCO)CC1	< 100
COCCC1CCN(c2nc(Sc3ccc(S(=O)(=O)C(C)(C)c4cccc([N+](=O)[O-])c4F)cc3F)nc(Nc3cc(C)[nH]n3)c2OC)CC1	< 100
COc1c(Nc2cc(C)[nH]n2)nc(Sc2ccc(S(=O)(=O)C(C)(C)c3cccc([N+](=O)[O-])c3F)cc2F)nc1N1CCN(C(=O)CN(C)C)CC1	< 100
COc1c(Nc2cc(C)[nH]n2)nc(Sc2ccc(S(=O)(=O)C(C)(C)c3c(F)c(F)cc(Cl)c3F)cc2F)nc1N1CCOCC1	< 100
